Reference: paper PMC5892408, “Novel dual-function near-infrared II fluorescence and PET probe for tumor delineation and image-guided surgery” (Chemical Science, 2018)

Test: Photostability under continuous 808 nm laser illumination
Type: physicochemical
Settings: same conditions as CHS2; 808 nm laser illumination (82 mW cm^-2) for 1 h
Method: Fig. 2 (a) Fluorescence emission of CHS2 under 808 nm excitation; (b) photostability of CHS2 in water, PBS and serum under 808 nm laser illumination (105 mW cm^–2) for 1 h; (c) photostability of ICG vs.CHS2 under 808 nm laser illumination (82 mW cm^–2) for 1 h; (d) cellular toxicity of different concentrations of CHS2 in U87MG cell lines.

photostability (fluorescence decay): ~50%
SMILES: CC1(C)C(/C=C/C=C/C=C/C=C2\N(CCCCS(=O)(=O)O)c3ccc4ccccc4c3C2(C)C)=[N+](CCCCS(=O)(=O)[O-])c2ccc3ccccc3c21 [ICG, indocyanine green]
